Patent publication US20140120232A1, “ACID TASTE/ACID SMELL-REDUCING AGENT” (T. HASEGAWA CO., LTD., priority 2011, published 2014)

Experiment: Sensory evaluation of Vermont drink containing the agent
Conditions: ten panels
Method: Water was added to a mixture of 10 g of apple-cider vinegar (acetic acid: 4.8%), 3 g of honey, 7 g of fructose-glucose liquid sugar mixed with sugar, 0.02 g of citric acid, 0.002 g of trisodium citrate, and 0.1 g of a Vermont flavor (manufactured by T. Hasegawa Co., Ltd.) to give a total amount of 100 mL. To the resulting mixture was added (Z,Z)-4,7-tridecadienal as the acid taste and/or acid smell-reducing agent of the present invention in concentrations shown in the following Table 1 to give Vermont drinks containing the agent.
Sensory evaluation of each drink was carried out by ten panels. […] The piercing aroma characteristic to aldehydes is a characteristic aroma common to every aldehyde and refers to an irritant off-smell giving an image of deteriorated oils and fats, soap, metals, Houttuynia cordata, etc. The judgment of smell was performed by comparing the effects at different concentrations of the acid taste and/or acid smell-reducing agent, and a concentration giving the highest acid taste/acid smell quality was selected. […]

CCCCC/C=C\C/C=C/C=C/C=O [(E,E,Z)-2,4,7-tridecatrienal]
A: number of panels, acid taste/acid smell extreme and cause irritation (0.005 ppt): 10 | B: number of panels, acid taste/acid smell slightly strong and slightly cause irritation (0.005 ppt): 0 | C: number of panels, acid taste/acid smell slightly unpleasant (0.005 ppt): 0 | Flavor judgment: number of panels who judged acid taste/acid smell quality the highest (0.005 ppt): 0 | N: number of panels, irritation of acid reduced to give a mild acid taste (0.005 ppt): 0 | X: number of panels, acid taste reduced but piercing odor characteristic to aldehydes unpleasant (0.005 ppt): 0 | A: number of panels, acid taste/acid smell extreme and cause irritation (0.02 ppt): 10 | B: number of panels, acid taste/acid smell slightly strong and slightly cause irritation (0.02 ppt): 0 | C: number of panels, acid taste/acid smell slightly unpleasant (0.02 ppt): 0 | Flavor judgment: number of panels who judged acid taste/acid smell quality the highest (0.02 ppt): 0 | N: number of panels, irritation of acid reduced to give a mild acid taste (0.02 ppt): 0 | X: number of panels, acid taste reduced but piercing odor characteristic to aldehydes unpleasant (0.02 ppt): 0 | A: number of panels, acid taste/acid smell extreme and cause irritation (0.1 ppt): 10 | B: number of panels, acid taste/acid smell slightly strong and slightly cause irritation (0.1 ppt): 0 | C: number of panels, acid taste/acid smell slightly unpleasant (0.1 ppt): 0 | Flavor judgment: number of panels who judged acid taste/acid smell quality the highest (0.1 ppt): 0 | N: number of panels, irritation of acid reduced to give a mild acid taste (0.1 ppt): 0 | X: number of panels, acid taste reduced but piercing odor characteristic to aldehydes unpleasant (0.1 ppt): 0 | A: number of panels, acid taste/acid smell extreme and cause irritation (0.2 ppt): 8 | B: number of panels, acid taste/acid smell slightly strong and slightly cause irritation (0.2 ppt): 2 | C: number of panels, acid taste/acid smell slightly unpleasant (0.2 ppt): 0 | Flavor judgment: number of panels who judged acid taste/acid smell quality the highest (0.2 ppt): 0 | N: number of panels, irritation of acid reduced to give a mild acid taste (0.2 ppt): 0 | X: number of panels, acid taste reduced but piercing odor characteristic to aldehydes unpleasant (0.2 ppt): 0 | A: number of panels, acid taste/acid smell extreme and cause irritation (0.5 ppt): 7 | B: number of panels, acid taste/acid smell slightly strong and slightly cause irritation (0.5 ppt): 2 | C: number of panels, acid taste/acid smell slightly unpleasant (0.5 ppt): 1 | Flavor judgment: number of panels who judged acid taste/acid smell quality the highest (0.5 ppt): 0 | N: number of panels, irritation of acid reduced to give a mild acid taste (0.5 ppt): 0 | X: number of panels, acid taste reduced but piercing odor characteristic to aldehydes unpleasant (0.5 ppt): 0 | A: number of panels, acid taste/acid smell extreme and cause irritation (1 ppb): 0 | B: number of panels, acid taste/acid smell slightly strong and slightly cause irritation (1 ppb): 0 | C: number of panels, acid taste/acid smell slightly unpleasant (1 ppb): 3 | Flavor judgment: number of panels who judged acid taste/acid smell quality the highest (1 ppb): 0 | N: number of panels, irritation of acid reduced to give a mild acid taste (1 ppb): 4 | X: number of panels, acid taste reduced but piercing odor characteristic to aldehydes unpleasant (1 ppb): 3 | A: number of panels, acid taste/acid smell extreme and cause irritation (1 ppt): 0 | B: number of panels, acid taste/acid smell slightly strong and slightly cause irritation (1 ppt): 5 | C: number of panels, acid taste/acid smell slightly unpleasant (1 ppt): 4 | Flavor judgment: number of panels who judged acid taste/acid smell quality the highest (1 ppt): 0 | N: number of panels, irritation of acid reduced to give a mild acid taste (1 ppt): 1 | X: number of panels, acid taste reduced but piercing odor characteristic to aldehydes unpleasant (1 ppt): 0 | A: number of panels, acid taste/acid smell extreme and cause irritation (5 ppt): 0 | B: number of panels, acid taste/acid smell slightly strong and slightly cause irritation (5 ppt): 2 | C: number of panels, acid taste/acid smell slightly unpleasant (5 ppt): 3 | Flavor judgment: number of panels who judged acid taste/acid smell quality the highest (5 ppt): 3 | N: number of panels, irritation of acid reduced to give a mild acid taste (5 ppt): 5 | X: number of panels, acid taste reduced but piercing odor characteristic to aldehydes unpleasant (5 ppt): 0 | A: number of panels, acid taste/acid smell extreme and cause irritation (10 ppb): 0 | B: number of panels, acid taste/acid smell slightly strong and slightly cause irritation (10 ppb): 0 | C: number of panels, acid taste/acid smell slightly unpleasant (10 ppb): 2 | Flavor judgment: number of panels who judged acid taste/acid smell quality the highest (10 ppb): 0 | N: number of panels, irritation of acid reduced to give a mild acid taste (10 ppb): 2 | X: number of panels, acid taste reduced but piercing odor characteristic to aldehydes unpleasant (10 ppb): 6 | A: number of panels, acid taste/acid smell extreme and cause irritation (20 ppt): 0 | B: number of panels, acid taste/acid smell slightly strong and slightly cause irritation (20 ppt): 0 | C: number of panels, acid taste/acid smell slightly unpleasant (20 ppt): 4 | Flavor judgment: number of panels who judged acid taste/acid smell quality the highest (20 ppt): 4 | N: number of panels, irritation of acid reduced to give a mild acid taste (20 ppt): 6 | X: number of panels, acid taste reduced but piercing odor characteristic to aldehydes unpleasant (20 ppt): 0 | A: number of panels, acid taste/acid smell extreme and cause irritation (50 ppb): 0 | B: number of panels, acid taste/acid smell slightly strong and slightly cause irritation (50 ppb): 0 | C: number of panels, acid taste/acid smell slightly unpleasant (50 ppb): 0 | Flavor judgment: number of panels who judged acid taste/acid smell quality the highest (50 ppb): 0 | N: number of panels, irritation of acid reduced to give a mild acid taste (50 ppb): 2 | X: number of panels, acid taste reduced but piercing odor characteristic to aldehydes unpleasant (50 ppb): 8 | A: number of panels, acid taste/acid smell extreme and cause irritation (100 ppt): 0 | B: number of panels, acid taste/acid smell slightly strong and slightly cause irritation (100 ppt): 0 | C: number of panels, acid taste/acid smell slightly unpleasant (100 ppt): 3 | Flavor judgment: number of panels who judged acid taste/acid smell quality the highest (100 ppt): 3 | N: number of panels, irritation of acid reduced to give a mild acid taste (100 ppt): 7 | X: number of panels, acid taste reduced but piercing odor characteristic to aldehydes unpleasant (100 ppt): 0 | A: number of panels, acid taste/acid smell extreme and cause irritation (500 ppt): 0 | B: number of panels, acid taste/acid smell slightly strong and slightly cause irritation (500 ppt): 0 | C: number of panels, acid taste/acid smell slightly unpleasant (500 ppt): 4 | Flavor judgment: number of panels who judged acid taste/acid smell quality the highest (500 ppt): 0 | N: number of panels, irritation of acid reduced to give a mild acid taste (500 ppt): 4 | X: number of panels, acid taste reduced but piercing odor characteristic to aldehydes unpleasant (500 ppt): 2
